Results on three compounds are retold here after BindingDB's records for patent US10676479 (Novartis AG, 2020).

For the experiment, the target named is Polycomb protein EED (Homo sapiens, UniProt O75530). The experiment in a line: EED-H3K27Me3 Peptide Competition Binding Assay by AlphaScreen. As to the method: Then 4 μL of detection beads mix was added to the plate and incubate in the dark at the rt for 1 h. The final concentration of donor and acceptor beads was 10 μg/mL for each. […] The data were then fit to a dose response equation using the program Helios (Novartis) to get the IC50 values. […] Compounds were diluted as described in the preceding section, and the assay was performed by adding 12 μL of 10 nM biotin-miniPEG-His6 peptide in the above buffer and incubating for 20 min at rt prior to addition of the beads to 10 μg/mL each. The plates were then incubated for 1 h at rt in dark before being read on EnVison.
Polycomb protein EED, sequence (O75530 whole entry): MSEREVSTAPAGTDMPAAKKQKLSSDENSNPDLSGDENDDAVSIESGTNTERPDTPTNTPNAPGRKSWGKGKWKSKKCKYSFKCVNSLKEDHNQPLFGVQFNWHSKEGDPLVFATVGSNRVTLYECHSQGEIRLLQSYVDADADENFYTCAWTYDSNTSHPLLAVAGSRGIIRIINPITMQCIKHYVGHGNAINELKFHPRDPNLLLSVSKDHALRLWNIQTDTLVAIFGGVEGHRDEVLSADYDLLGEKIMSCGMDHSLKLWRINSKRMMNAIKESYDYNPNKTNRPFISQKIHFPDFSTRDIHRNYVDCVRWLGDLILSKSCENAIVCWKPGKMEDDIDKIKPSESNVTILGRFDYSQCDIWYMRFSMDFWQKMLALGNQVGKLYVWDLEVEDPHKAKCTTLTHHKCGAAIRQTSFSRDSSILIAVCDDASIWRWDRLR
A general note: Bead proximity is the source of the signal in Alpha formats.

`Cc1ncccc1-c1cnc(NCc2c(F)ccc3c2CCO3)n2cnc(C(=O)NC3COC3)c12` [US10676479, Example 106] yielded an IC50 of 7 nM.

The compound `CCN1CCN(c2ccc(-c3cnc(NCc4c(F)ccc5c4CCO5)n4cnc(C#N)c34)cn2)CC1` [US10676479, Example 81] showed an IC50 of 24.9 nM.

Compound `CS(=O)(=O)c1ccc(-c2cnc(NCc3c(F)ccc4c3CCO4)n3cnc(-c4ccccc4)c23)cc1` [US10676479, Example 110] returned an IC50 of 8.1 nM.

The IC50 is the point on the concentration scale where inhibition reaches its midpoint. Lower therefore signals greater potency in that assay.
